Experiments:
Assay type in all cases: biochemical
SIRT1 = biological target: T1, SIRT1 (Homo sapiens, UniProt Q96EB6); assay: Fluor de Lys deacetylation assay, moderate inhibition at […]
T1 sequence (Q96EB6 2-747): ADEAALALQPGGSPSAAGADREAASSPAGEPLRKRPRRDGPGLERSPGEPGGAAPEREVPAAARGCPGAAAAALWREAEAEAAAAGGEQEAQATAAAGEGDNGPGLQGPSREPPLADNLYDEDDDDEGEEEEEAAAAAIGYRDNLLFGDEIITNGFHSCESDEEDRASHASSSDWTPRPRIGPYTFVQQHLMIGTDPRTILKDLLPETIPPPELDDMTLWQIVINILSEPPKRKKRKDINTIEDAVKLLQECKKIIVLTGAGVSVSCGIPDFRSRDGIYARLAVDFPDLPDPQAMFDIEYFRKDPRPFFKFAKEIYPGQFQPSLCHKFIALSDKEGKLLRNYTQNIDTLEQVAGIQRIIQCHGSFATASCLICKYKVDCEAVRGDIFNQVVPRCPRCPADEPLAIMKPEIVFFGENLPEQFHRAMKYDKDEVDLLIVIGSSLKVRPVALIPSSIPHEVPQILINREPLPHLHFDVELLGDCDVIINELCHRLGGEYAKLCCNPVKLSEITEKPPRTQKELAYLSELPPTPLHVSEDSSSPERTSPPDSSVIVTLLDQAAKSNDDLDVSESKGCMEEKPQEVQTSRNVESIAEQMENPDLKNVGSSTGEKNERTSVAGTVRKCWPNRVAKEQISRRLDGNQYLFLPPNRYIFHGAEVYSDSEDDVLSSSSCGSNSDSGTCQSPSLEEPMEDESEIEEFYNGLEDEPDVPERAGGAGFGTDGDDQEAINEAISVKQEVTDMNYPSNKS

Sirtuin 6 (SIRT6) [1] = biological target: T2, Sirtuin 6 (SIRT6) (Homo sapiens, UniProt Q8N6T7); assay: HPLC deacetylation assay with H3K9Ac peptide (activation); immunoblot with core histones; Michaelis-Menten kinetics
T2 construct: recombinant GST-tagged human SIRT6

SIRT3 = biological target: T3, SIRT3 (Homo sapiens, UniProt Q9NTG7); assay: Fluor de Lys deacetylation assay, moderate inhibition at […]
T3 sequence (Q9NTG7 102-399): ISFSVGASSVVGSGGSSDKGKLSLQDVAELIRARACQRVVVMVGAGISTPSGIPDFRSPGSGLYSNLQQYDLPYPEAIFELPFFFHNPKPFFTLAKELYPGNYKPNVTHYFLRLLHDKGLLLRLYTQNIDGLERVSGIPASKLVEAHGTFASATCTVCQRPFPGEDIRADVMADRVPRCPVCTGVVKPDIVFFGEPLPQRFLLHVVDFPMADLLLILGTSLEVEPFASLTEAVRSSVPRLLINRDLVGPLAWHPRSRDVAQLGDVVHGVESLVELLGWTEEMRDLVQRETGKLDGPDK

SIRT2 = biological target: T4, SIRT2 (Homo sapiens, UniProt Q8IXJ6); assay: Fluor de Lys deacetylation assay, inhibition at […]
T4 sequence (Q8IXJ6 2-389): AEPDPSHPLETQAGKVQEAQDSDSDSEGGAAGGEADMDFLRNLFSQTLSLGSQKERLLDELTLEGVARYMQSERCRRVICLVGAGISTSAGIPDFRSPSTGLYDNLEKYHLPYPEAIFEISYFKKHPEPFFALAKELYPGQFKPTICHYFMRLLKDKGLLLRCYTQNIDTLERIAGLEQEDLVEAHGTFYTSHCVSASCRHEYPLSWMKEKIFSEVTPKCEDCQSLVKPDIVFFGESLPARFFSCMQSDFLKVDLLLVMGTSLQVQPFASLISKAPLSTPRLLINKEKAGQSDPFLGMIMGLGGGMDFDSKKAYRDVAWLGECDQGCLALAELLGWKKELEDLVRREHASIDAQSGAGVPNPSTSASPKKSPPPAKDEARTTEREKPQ

Sirtuin 6 (SIRT6) [2] = biological target: T2, Sirtuin 6 (SIRT6); assay: HPLC deacetylation assay with H3K9Ac peptide (activation); immunoblot with core histones

T2 sequence (Q8N6T7 2-355): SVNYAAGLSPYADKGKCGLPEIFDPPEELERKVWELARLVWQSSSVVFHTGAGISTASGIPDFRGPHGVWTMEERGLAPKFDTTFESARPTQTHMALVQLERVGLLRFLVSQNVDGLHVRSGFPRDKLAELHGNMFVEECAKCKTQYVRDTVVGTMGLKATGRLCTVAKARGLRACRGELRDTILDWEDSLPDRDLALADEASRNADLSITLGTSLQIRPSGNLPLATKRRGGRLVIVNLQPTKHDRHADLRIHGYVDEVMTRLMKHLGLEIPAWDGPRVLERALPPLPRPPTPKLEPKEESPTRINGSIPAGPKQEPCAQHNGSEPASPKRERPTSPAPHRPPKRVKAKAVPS

Row | Structure (SMILES) | Fluor de Lys deacetylation assay, moderate inhibition at 100 μM (SIRT1) | EC50 (Sirtuin 6 (SIRT6) [1]) [µM] | Fluor de Lys deacetylation assay, moderate inhibition at 100 μM (SIRT3) | % (SIRT2) | EC50 (Sirtuin 6 (SIRT6) [2]) [µM]
1 | O=c1oc2c(O)c(O)cc3c(=O)oc4c(O)c(O)cc1c4c23 [Ellagic acid] | Galloflavin and Ellagic acid displayed moderate inhibition against SIRT1 and SIRT3 | 25 | Galloflavin and Ellagic acid displayed moderate inhibition against SIRT1 and SIRT3 | up to 60 % inhibition at 100 μM | 
2 | O=c1oc2c(cc1O)oc(=O)c1cc(O)c(O)c(O)c12 [Galloflavin] | Galloflavin and Ellagic acid displayed moderate inhibition against SIRT1 and SIRT3 |  | Galloflavin and Ellagic acid displayed moderate inhibition against SIRT1 and SIRT3 | up to 60 % inhibition at 100 μM | 79

— publication PMC12036747, “Effects of galloflavin and ellagic acid on sirtuin 6 and its anti-tumorigenic activities” (Biomedicine & pharmacotherapy = Biomedecine & …, 2020)
